Among the test systems are IGROV-1; TK-10; HCT-15; MDA-MB-231; SK-MEL-5; K562; HL-60; A549; NCI/ADR-RES; NCI-H23; RPMI-8226; SF-268; PC-3; SF-295; KM12; HOP-62; SW-620; COLO 205; DU-145; HT-29.
What all share (assay): NCI tumour cell line growth inhibition, 48 h

These results are taken from ChEMBL document CHEMBL1201862, “PubChem BioAssay data set” (2004).

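These data come from cells grown in 96-well plates and exposed to compound for 48 hours at five concentrations. GI50: concentration for 50% inhibition of growth.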 Calls of active or inactive are those of the source. Cut-off read from the data, not from the text of the source: active = GI50 up to about 1.1 µM and inactive = higher.

For `Cc1cc(C)n(C(=CC(=O)C(Cl)Cl)n2nc(C)cc2C)n1`, the GI50 was 9.64 µM (inactive) in the assay with IGROV-1; 3.18 µM (inactive) in the assay with TK-10; 2.73 µM in the assay on HCT-15; 2.38 µM (inactive) in the assay with MDA-MB-231; 5.98 µM (inactive) in the assay with SK-MEL-5; 2.17 µM (inactive) in the assay with K562. Moreover, the GI50 is 3.32 µM (inactive) with HL-60; 21.7 µM (inactive) in the assay on A549; 2.65 µM (inactive) in the assay on NCI/ADR-RES; 2.62 µM (inactive) in the assay with NCI-H23; 0.871 µM (active) with RPMI-8226; 6.38 µM (inactive) in the assay with SF-268. The GI50 in the assay with PC-3 is 11.4 µM (inactive); in the assay with SF-295, 10.4 µM (inactive); in the assay with KM12, 6.49 µM (inactive); in the assay on HOP-62, 3.66 µM (inactive); in the assay on SW-620, 3.88 µM (inactive); in the assay with COLO 205, 13.8 µM (inactive). Further, in the assay with DU-145, the GI50 was 5.38 µM (inactive).

As for `COc1ccc2c(c1OC)OC[C@@H](C1=CC(=O)C=C(O)C1=O)C2`, the GI50 in the assay with IGROV-1 was 11.7 µM (inactive); with TK-10, 14.2 µM (inactive); in the assay with HCT-15, 14.7 µM; in the assay with MDA-MB-231, 4.46 µM (inactive); in the assay on SK-MEL-5, 12.5 µM (inactive); in the assay on K562, 2.2 µM (inactive). Moreover, the GI50 is 0.641 µM (active) with HL-60; 18.2 µM (inactive) with A549; 24.5 µM (inactive) with NCI/ADR-RES; 16.5 µM (inactive) in the assay on NCI-H23; 1.91 µM (inactive) with RPMI-8226; 18.1 µM (inactive) in the assay on SF-268. Besides, the GI50 is 13.1 µM (inactive) with PC-3; 16.1 µM (inactive) in the assay with SF-295; 13 µM (inactive) in the assay with KM12; 17.7 µM (inactive) with HT-29; 27 µM (inactive) in the assay with HOP-62; 8.2 µM (inactive) with SW-620. The GI50 with COLO 205 is 21.3 µM (inactive); in the assay on DU-145, 15.7 µM (inactive).

Consider `O=CC1OC(=O)c2cc(O)c(O)c(O)c2-c2c(cc(O)c(O)c2O)C(=O)OC1C(O)C(O)CO` (stereo unspecified), for which the GI50 in the assay on IGROV-1 is > 100 µM (inactive); in the assay with TK-10, 19.5 µM (inactive); with HCT-15 it was 69.2 µM; in the assay on MDA-MB-231, 17.1 µM (inactive); in the assay with SK-MEL-5, 51.6 µM (inactive); with K562 it was 21.1 µM (inactive). For the same molecule, the GI50 was 35.4 µM (inactive) in the assay with HL-60; 49.8 µM (inactive) in the assay with A549; 76.9 µM (inactive) in the assay on NCI/ADR-RES; > 100 µM (inactive) in the assay with NCI-H23; 26.2 µM (inactive) in the assay with RPMI-8226; > 100 µM (inactive) in the assay with SF-268. Besides, the GI50 was 16.2 µM (inactive) with PC-3; 27.9 µM (inactive) in the assay with SF-295; 41.5 µM (inactive) with KM12; 22 µM (inactive) in the assay with HT-29; 63.2 µM (inactive) in the assay on HOP-62; 17.1 µM (inactive) in the assay on SW-620. The GI50 was 45.5 µM (inactive) in the assay with COLO 205 and > 100 µM (inactive) in the assay on DU-145.

Turning to `Cc1cc(S(=O)(=O)/N=C(\NN)NCC(=O)NN)c(S)cc1Cl`, the GI50 is > 10 µM (inactive) with IGROV-1; > 10 µM (inactive) in the assay on TK-10; > 10 µM in the assay on HCT-15; > 10 µM (inactive) with MDA-MB-231; 8.85 µM (inactive) in the assay on SK-MEL-5; > 10 µM (inactive) in the assay with K562. Further, the GI50 in the assay on HL-60, with A549, with NCI/ADR-RES, in the assay on NCI-H23, in the assay with RPMI-8226 and in the assay with SF-268 was > 10 µM (inactive) each time. The GI50 in the assay with PC-3, in the assay on SF-295, with KM12, with HT-29, in the assay on HOP-62 and with SW-620 was > 10 µM (inactive) throughout. In addition, the GI50 with COLO 205 and in the assay with DU-145 was > 10 µM (inactive) throughout.

As for `Cc1cnoc1/N=C1\C=C(O)C(=O)c2ccccc21`, the GI50 is 22.8 µM (inactive) in the assay with IGROV-1; > 100 µM (inactive) in the assay with TK-10; 12.2 µM in the assay on HCT-15; 25.6 µM (inactive) in the assay on MDA-MB-231; 3.46 µM (inactive) in the assay on SK-MEL-5; 1.73 µM (inactive) in the assay on K562. For the same molecule, the GI50 with HL-60 was 10 µM (inactive); in the assay with A549, 6.7 µM (inactive); with NCI/ADR-RES it was 8.45 µM (inactive); in the assay on NCI-H23, 4.71 µM (inactive); in the assay on RPMI-8226, 15.4 µM (inactive); with SF-268, 17.8 µM (inactive). In addition, the GI50 in the assay on PC-3 was 25.4 µM (inactive); in the assay on SF-295, 22.8 µM (inactive); with KM12, 11.9 µM (inactive); in the assay on HT-29, 29 µM (inactive); in the assay with HOP-62, 10 µM (inactive); in the assay on SW-620, 25.8 µM (inactive). Moreover, the GI50 in the assay on COLO 205 is 35.9 µM (inactive); with DU-145, 18 µM (inactive).

For `COC(=O)c1ccc(/C=C2\Cc3ccccc3C2=O)cc1`, the GI50 is > 100 µM (inactive) in the assay on TK-10; > 100 µM with HCT-15; > 100 µM (inactive) in the assay with MDA-MB-231; > 100 µM (inactive) with SK-MEL-5; > 100 µM (inactive) with K562; > 100 µM (inactive) in the assay on HL-60. The GI50 with A549, with NCI/ADR-RES, in the assay with NCI-H23, with RPMI-8226, with SF-268 and with PC-3 was > 100 µM (inactive) each time. Also, the GI50 in the assay with SF-295, with KM12, in the assay on HT-29, in the assay on HOP-62, in the assay on SW-620 and with COLO 205 was > 100 µM (inactive) throughout. The GI50 in the assay with DU-145 is > 100 µM (inactive).

On to `N#CC1(C#N)NC(c2cccs2)C(C#N)(C#N)NC1c1cccs1` (stereo unspecified), for which the GI50 in the assay with IGROV-1 was 30.3 µM (inactive); with TK-10, > 100 µM (inactive); in the assay on HCT-15, 30.7 µM; with MDA-MB-231, 80.9 µM (inactive); with SK-MEL-5 it was 26.7 µM (inactive); in the assay on K562, 22.4 µM (inactive). Also, the GI50 is 17.1 µM (inactive) in the assay with HL-60; 50.8 µM (inactive) with A549; 77.3 µM (inactive) in the assay on NCI/ADR-RES; 55.1 µM (inactive) with NCI-H23; 27.4 µM (inactive) with RPMI-8226; 35.5 µM (inactive) with SF-268. Besides, the GI50 in the assay with PC-3 is 27.4 µM (inactive); in the assay with SF-295 it was 52.5 µM (inactive); in the assay with KM12, 39.9 µM (inactive); in the assay on HT-29 it was 47.3 µM (inactive); in the assay with HOP-62 it was > 100 µM (inactive); in the assay on SW-620, 31.1 µM (inactive). For the same molecule, the GI50 is 47.9 µM (inactive) with COLO 205 and 59.7 µM (inactive) in the assay with DU-145.

On to `C[C@H]1C[C@H]2[C@@H]3CCC4=CC(=O)C=C[C@]4(C)C3=CC[C@]2(C)[C@@]1(O)C(=O)CO`, for which the GI50 in the assay with IGROV-1 is > 100 µM (inactive); in the assay on TK-10, > 100 µM (inactive); in the assay with HCT-15, > 100 µM; with MDA-MB-231, > 100 µM (inactive); in the assay with SK-MEL-5 it was 83.4 µM (inactive); with K562, > 100 µM (inactive). For the same molecule, the GI50 is 42 µM (inactive) with HL-60; > 100 µM (inactive) in the assay with A549; > 100 µM (inactive) in the assay on NCI/ADR-RES; 95.1 µM (inactive) in the assay with NCI-H23; 37.2 µM (inactive) with RPMI-8226; > 100 µM (inactive) in the assay with SF-268. Further, the GI50 with PC-3 is 99.5 µM (inactive); with SF-295, > 100 µM (inactive); with KM12, > 100 µM (inactive); in the assay on HT-29, > 100 µM (inactive); with HOP-62 it was > 100 µM (inactive); in the assay on COLO 205, > 100 µM (inactive). Also, in the assay on DU-145, the GI50 is > 100 µM (inactive).

With `NC(=O)C1=C(c2ccccc2)c2ccccc2C1=O`, the GI50 with IGROV-1 is 16.1 µM (inactive); in the assay on TK-10 it was 18.1 µM (inactive); with HCT-15 it was 12.3 µM; in the assay with MDA-MB-231 it was 17.8 µM (inactive); with SK-MEL-5 it was 16.3 µM (inactive); with K562 it was 38.1 µM (inactive). The GI50 with HL-60 is 3.57 µM (inactive); in the assay with A549, 18.6 µM (inactive); with NCI/ADR-RES, 17.7 µM (inactive); in the assay with NCI-H23, 18.1 µM (inactive); in the assay on RPMI-8226 it was 14.6 µM (inactive); in the assay with SF-268 it was 17.8 µM (inactive). For the same molecule, the GI50 with PC-3 was 17.8 µM (inactive); with SF-295 it was 23 µM (inactive); in the assay on KM12, 16.1 µM (inactive); in the assay with HT-29, 16.6 µM (inactive); with HOP-62, 14.9 µM (inactive); in the assay on SW-620, 25.1 µM (inactive). For the same molecule, the GI50 in the assay on COLO 205 is 22 µM (inactive); with DU-145, 17.1 µM (inactive).

Take `O=C1CC(c2ccc(Cl)cc2)Oc2ccccc21` (stereo unspecified): the GI50 in the assay with IGROV-1 is 14.6 µM (inactive); with TK-10, 27.4 µM (inactive); with HCT-15, 17 µM; with MDA-MB-231, 28.2 µM (inactive); in the assay with SK-MEL-5, 14 µM (inactive); with K562 it was 4.86 µM (inactive). Moreover, the GI50 with HL-60 was 10.7 µM (inactive); in the assay with NCI/ADR-RES it was 16.1 µM (inactive); in the assay with NCI-H23 it was 15.2 µM (inactive); in the assay with RPMI-8226 it was 3.96 µM (inactive); with SF-268, 28.4 µM (inactive); in the assay with PC-3, 20.2 µM (inactive). Besides, the GI50 with SF-295 is 24.4 µM (inactive); with KM12, 12.9 µM (inactive); with HT-29 it was 8.71 µM (inactive); with HOP-62 it was 19.6 µM (inactive); with SW-620, 25.7 µM (inactive); in the assay with COLO 205 it was 27 µM (inactive). Moreover, the GI50 with DU-145 is 69 µM (inactive).
